Assay results reported in patent US20090069441A1, “Motuporamine Mimic Agents” (priority 2006, published 2009).
pIC50, pKi: −log10 of the molar value. Like-named read-outs stand apart in the source and are kept apart here.

Assays:
[1] = target: polyamine transporter (PAT); conditions: data originally reported in Ref; read-out: L1210 Ki value; cited from earlier work
CHO cells [2] = test: Cytotoxicity in CHO cells; assay type: cell-based, Chinese hamster; conditions: for pIC50: Cricetulus griseus, CHO
Source text: In terms of Table 1, L1210 cells are mouse leukemia cells and are the gold standard in terms of evaluating polyamine cytotoxicity data due to a plethora of prior data in this cell line for other polyamine structures. Clearly 7a was similar in all respects to 4a (Table 1). […] The lower the Ki value, the higher the affinity of the drug for the polyamine transporter (PAT) on the cell surface. Chinese hamster ovary (CHO) cells and a mutant line without an active PAT (CHO-MG) also evaluated the PAT selectivity of these drugs.
CHO and CHO-MG studies. Chinese hamster ovary (CHO) cells were chosen along with a mutant cell line (CHO-MG) in order to comment on how the synthetic conjugates gain access to cells. The CHO-MG cell line is polyamine-transport deficient and was isolated after selection for growth resistance to methylglyoxalbis(guanylhydrazone), MGBG, (CH3C[═N—NHC(═NH)NH2]CH[═N—NHC(═NH)NH2]) using a single-step selection after mutagenesis with ethylmethanesulfonate (Mandel et al., J. Cell. Physiol., 1978, 97, 335-344; Byers et al., Biochem. J. 1989, 263, 745-752).
In contrast, the parent CHO cell line represents a cell type with high PAT activity. Comparison of conjugate cytotoxicity in these two CHO lines provided an important screen to detect selective conjugate delivery via the PAT. For example, a conjugate with high utilization of the polyamine transporter would be very toxic to CHO cells, but less so to CHO-MG cells. In short, highly-selective PAT ligands should give high (CHO-MG/CHO) IC50 ratios.
Biological studies. Murine leukemia cells (L1210), CHO and CHO-MG cells were grown in RPMI medium supplemented with 10% fetal calf serum, glutamine (2 mM), penicillin (100 U/mL), streptomycin (50 μg/mL). L-Proline (2 μg/mL) was added to the culture medium for CHO-MG cells. Cells were grown at 37° C. under a humidified 5% CO2 atmosphere. […] Trypan blue staining was used to determine cell viability before the initiation of a cytotoxicity experiment. Cells in early to mid log-phase were used. IC50 determinations. Cell growth was assayed in sterile 96-well microtiter plates (Becton-Dickinson, Oxnard, Calif., USA). L1210 cells were seeded at 5e^4 cells/mL of medium (100 μL/well). CHO and CHO-MG cells were plated at 2e^3 cells/mL. Drug solutions (10 μL per well) of appropriate concentration were added at the time of seeding for L1210 cells and after an overnight incubation for the CHO cell lines. After exposure to the drug for 48 hr, cell growth was determined by measuring formazan formation from 3-(4,5-dimethylthiazol-2-yl)2,5-diphenyltetrazolium using a Titertek Multiskan MCC/340 microplate reader for absorbance (540 nm) measurements (Mosmann, T., J. Immunol. Methods 1983, 65, 55-63).

CHO cells [3] = conditions: data originally reported in Ref; cited from earlier work

| SMILES | pKi [1] | pIC50 (CHO cells [2]; absence of AG, 48 h, read-out: CHO IC50 w/o AG) | pIC50 (CHO cells [2]; in the presence of AG, 48 h at 37° C., read-out: CHO IC50) | CHOMG/CHO IC50 ratio in the absence of AG (CHO cells [2]; absence of AG) | IC50 Ratio (CHO-MG/CHO) w/o AG (CHO cells [2]; absence of AG) | IC50 Ratio (CHO-MG/CHO), a measure of PAT selectivity (CHO cells [2]; in the presence of AG) | CHOMG/CHO IC50 ratio (CHO cells [2]; with AG) | IC50 Ratio (CHO-MG/CHO) with AG (CHO cells [2]; with AG) | IC50 Ratio (CHO-MG/CHO), a measure of PAT selectivity (CHO cells [3]) | pIC50 (CHO cells [2]; 48 h incubation, new data, read-out: CHO IC50) | IC50 Ratio (CHO-MG/CHO), a measure of PAT selectivity (CHO cells [2]; new data) |
| --- | --- | --- | --- | --- | --- | --- | --- | --- | --- | --- | --- |
| NCCCCNCCCCNCc1c2ccccc2cc2ccccc12 [Compound 6b] | 5.74 | 5.76 | 6.35 | 4 | 4 | 148 | 148 | 148 | 148 |  |  |
| CCN(CCCNCCCN)Cc1c2ccccc2cc2ccccc12 [Compound 7a, N-(3-Amino-propyl)-N′-anthracen-9-ylmethyl-N′-ethyl-propane-1,3-diamine] |  |  |  |  |  |  |  |  |  | 5.28 | 0.8 |
